Legend:
orchidectomized rats = test: Androgenic / anti-androgenic activity in orchidectomized rats (prostate weight, seminal vesicle); assay type: in vivo, rat; settings: prostate weight and seminal vesicle
Excerpt: The absence of androgenic as well as anti-androgenic activity in vivo was confirmed by tests performed with orchidectomized rats (change in prostate weight and in the seminal vesicle).

[1] = molecular target: T1, glucocorticoid receptor (GR) (Homo sapiens, UniProt P04150); test: Glucocorticoid receptor binding
T1 sequence (P04150 1-777): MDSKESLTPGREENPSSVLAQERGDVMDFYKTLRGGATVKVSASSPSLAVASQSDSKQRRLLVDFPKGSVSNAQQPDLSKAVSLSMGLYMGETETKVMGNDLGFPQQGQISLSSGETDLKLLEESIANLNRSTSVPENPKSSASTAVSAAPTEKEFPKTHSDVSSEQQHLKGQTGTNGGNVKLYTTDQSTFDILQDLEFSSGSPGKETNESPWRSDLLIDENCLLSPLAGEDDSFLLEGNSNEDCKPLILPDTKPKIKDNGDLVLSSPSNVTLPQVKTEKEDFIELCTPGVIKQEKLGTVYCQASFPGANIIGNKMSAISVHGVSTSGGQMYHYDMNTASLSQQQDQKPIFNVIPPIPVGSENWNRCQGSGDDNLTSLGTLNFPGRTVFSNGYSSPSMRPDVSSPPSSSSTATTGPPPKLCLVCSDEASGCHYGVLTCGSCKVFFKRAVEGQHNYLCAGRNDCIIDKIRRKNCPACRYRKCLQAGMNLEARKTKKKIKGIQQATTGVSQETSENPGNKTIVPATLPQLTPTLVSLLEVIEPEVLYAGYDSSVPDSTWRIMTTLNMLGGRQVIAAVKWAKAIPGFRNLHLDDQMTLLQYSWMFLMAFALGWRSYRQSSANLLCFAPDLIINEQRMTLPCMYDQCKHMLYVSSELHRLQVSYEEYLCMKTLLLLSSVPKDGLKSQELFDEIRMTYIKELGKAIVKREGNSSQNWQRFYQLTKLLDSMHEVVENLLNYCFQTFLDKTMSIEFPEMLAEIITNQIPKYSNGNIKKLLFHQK

[2] = system: Pregnant rats (Wistar Han, SPF); test: Pregnancy maintenance test in rat; assay type: in vivo
Excerpt: In rats, castration induces termination of pregnancy. Progestins (combined with estrogens) are capable of maintaining pregnancy in castrated animals. However, the degree of pregnancy maintenance in castrated rats is optimal only in a defined dose range. Therefore, higher as well as lower doses generally induce a weaker effect. Accompanying treatment with defined doses of estrone (E1) increases the pregnancy maintaining effect of progestins.
Pregnant rats (Wistar Han, SPF) of 190 to 220 g (5 to 8 animals per dose) are ovariectomized on day 8 of pregnancy, 2 hours after the first substance administration. From day 8 to day 14, rats are daily treated with test progestin in combination with a standard dose of E1. One day later, animals are killed with carbon dioxide. For each animal, the number of living and dead fetuses is determined according to the heartbeat of the embryos. In case of empty uteri, the number of implantation sites is determined by means of staining with a 10 % ammonium sulfide solution.
S.c. (subcutaneous) application: The test progestin is dissolved in benzyl benzoate/castor oil (1+4 v/v), and the daily dose is administered in a volume of 1 ml/kg body weight.
P.o. (peroral) application: The test progestin is suspended in a carrier liquid (85 mg Myrj^R in 100 ml 0.9 % w/v NaCl solution), and the daily dose is administered in a volume of 2 ml/kg body weight.
I.p. (intraperitoneal) application: The test progestin is dissolved in propylene glycol and charged in miniature osmotic pumps (type 2001, 1.0 µl/h, 7 days), which are placed in the abdominal cavity of the rat.
The standard dose of estrone is 0.005 mg/kg body weight s.c. and is dissolved in benzyl benzoate/castor oil ([…]).
It is determined the pregnancy maintenance per animal [%], the pregnancy maintenance per dose (median of single values) and the ED50 (dose, at which pregnancy is maintained in 50 % of the animals; 100 % corresponds to control animals that are not ovariectomized).

[3] = molecular target: T2, mineralocorticoid receptor (MR) (Homo sapiens, UniProt P08235); test: Mineralocorticoid receptor binding; settings: in vitro
T2 sequence (P08235 1-984): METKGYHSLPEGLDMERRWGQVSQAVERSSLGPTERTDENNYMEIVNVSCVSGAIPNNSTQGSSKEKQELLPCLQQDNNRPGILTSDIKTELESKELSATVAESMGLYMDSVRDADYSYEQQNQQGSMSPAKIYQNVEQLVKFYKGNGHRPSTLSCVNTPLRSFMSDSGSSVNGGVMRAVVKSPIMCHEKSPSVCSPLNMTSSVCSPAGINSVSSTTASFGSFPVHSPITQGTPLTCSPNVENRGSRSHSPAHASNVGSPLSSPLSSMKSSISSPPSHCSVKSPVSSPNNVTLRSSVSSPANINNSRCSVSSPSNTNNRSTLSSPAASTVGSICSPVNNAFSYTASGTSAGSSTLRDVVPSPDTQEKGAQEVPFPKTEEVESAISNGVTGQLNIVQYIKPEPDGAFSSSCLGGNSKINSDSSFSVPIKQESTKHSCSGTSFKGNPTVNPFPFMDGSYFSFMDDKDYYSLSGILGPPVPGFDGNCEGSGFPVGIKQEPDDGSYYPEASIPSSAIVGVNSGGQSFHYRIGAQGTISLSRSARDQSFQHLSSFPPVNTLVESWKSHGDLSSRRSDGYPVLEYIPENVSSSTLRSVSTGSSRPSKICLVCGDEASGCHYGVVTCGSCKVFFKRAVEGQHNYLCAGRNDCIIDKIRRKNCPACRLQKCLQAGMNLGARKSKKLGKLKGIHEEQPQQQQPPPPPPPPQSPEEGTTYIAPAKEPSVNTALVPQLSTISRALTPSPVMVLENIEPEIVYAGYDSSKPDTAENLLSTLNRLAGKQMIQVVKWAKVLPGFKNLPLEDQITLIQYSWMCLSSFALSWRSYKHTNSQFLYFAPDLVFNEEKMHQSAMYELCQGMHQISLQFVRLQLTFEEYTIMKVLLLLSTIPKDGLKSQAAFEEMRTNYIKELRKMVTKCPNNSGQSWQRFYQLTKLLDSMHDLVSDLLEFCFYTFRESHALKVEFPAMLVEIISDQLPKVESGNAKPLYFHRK

affinity for the glucocorticoid receptor (GR) [1]: very high
affinity for the mineralocorticoid receptor (MR) [3]: negligible
Structure (SMILES): O=C1OCc2cc(NC(=O)C(O)(CC3(c4cc(C(F)(F)F)ccc4F)CC3)C(F)(F)F)ccc21 (single isomer, unassigned; (+)) [((+)-1), (+)-5-{2-hydroxy-3-[1-(2-fluoro-5-trifluoromethylphenyl)-cyclopropyl]-2-trifluoromethyl-propionylamino}-phthalide]
androgenic activity in vivo (orchidectomized rats): no androgenic
anti-androgenic activity in vivo (orchidectomized rats): no anti-androgenic activity
Maintenance of pregnancy (rat) [ED50] ([2]; ovariectomized pregnant rats, with estrone): 0.012 mg/kg
potency compared to levonorgestrel (LNG), pregnancy maintenance test ([2]; rat, times more potent than LNG): about 10
androgenic activity in pregnancy maintenance test ([2]; rats, dose 100 times higher than the dose required for maintaining pregnancy): no androgenic activity

From patent publication EP1344776A1, “5- 2-hydroxy-3-[1-(3-trifluoromethylphenyl)-cyclopropyl]-propionylamino -phtalide and 6- 2-hydroxy-3-[1-(3-trifluoromethylphenyl)-cyclopropyl]-propionylamino -4-methyl-2,3-benzoxazin-1-one derivatives with progesterone receptor modulating activity for use in fertility control, hormone replacement …” (Schering Aktiengesellschaft, priority 2002, dated 2003)
